Measured values reported in patent US20140221207A1, “ISOLATED BACTERIAL STRAIN OF THE GENUS BURKHOLDERIA AND PESTICIDAL METABOLITES THEREFROM- FORMULATIONS AND USES” (MARRONE BIO INNOVATIONS, INC., priority 2011, published 2014).
Read-outs that look alike come from different tables or passages of the source.

Tests used:
[1] = test system: milkweed bugs (Oncopeltus fasciatus); assay: Sucking contact bioassay on milkweed bugs; format: in vivo; settings: 1 μL of 1 mg/mL in ethanol onto abdomen of 4th instar; scored at 4 and 7 day
Procedure: The insecticidal activity of the pure compounds templamide B (MBI 206; MW 537), FR 901465 (MBI 206; MW 523) and FR901228 (MBI 206; MW 540) were tested in a laboratory assay using a sucking contact bioassay system. The compounds were dissolved in 100% ethanol to concentrations of 1 mg/mL. Individual 4th instar milkweed bugs, penultimate nymph, larvae were placed in 5C Rubbermaid container with 2 sunflower seeds in each tub and 1 water cup (water in contact cup with cotton wick) into each tub. A Hamilton Micropipette was used to apply 1 μL (1 drop) of compound onto abdomen of milkweed bugs (MWB) of each larvae. Tubs were place into the Rubbermaid container and cap with mesh lid. Eight larvae per sample were treated. The assay was incubated at 25° C., 12 h light/12 h dark. Larvae were scored at 4 and 7 day after application. […] Thus, FR 901465 provided a better (87.5%) control of milkweed bugs, than FR 901228 (MW 540) and templamide B (FIG. 4).

Lygus hesperus = assay: 12 well plate treated green beans bioassay, Lygus hesperus late 2nd/early 3rd instar; format: in vivo; settings: Lygus hesperus; green beans dipped in 0.25 mg/mL; scored at 24, 48 and 120 hours
Procedure: The insecticidal activity of the four compounds, templamide A, templamide B, FR901465 & FR901228 isolated from Burkholderia were tested in a laboratory assay using a 12 well plate with treated green beans bioassay system. The compound was dissolved in 100% ethanol to concentrations of […] and 500 μL of this sample was added to 3.5 mL of water to make a total volume of 4 mL containing 0.25 mg/mL concentration of the compound. Green beans were washed earlier in bleach solution and then sat in water to rinse. Beans were dried before using and then were cut with scissors to fit into wells of 12-well plate. With the help of forceps the beans were dunked into a 15 mL plastic falcon tube containing each treatment and then submerged in treatment for exactly one min. one bean part was put into each well and then individual late 2nd/early 3rd instar Lygus hesperus, were placed in wells with help of brush. Plate sealer was used to cover tray and hole poked into the plate sealer for aeration. The numbers of Lygus/well were counted and plates were placed on brench top. Larvae were scored at 24, 48 and 120 hours after application. […] The positive control used in this testing was Avid (Avemectin) at the rate of 13 μL/10 mL.

[2] = test system: Chlamydomonas reinhardtii; assay: Control of Chlamydomonas reinhardtii by purified compounds, fluorescence at 680 nm; format: cell-based; settings: 72 hours
Procedure: Purified compounds from Burkholderia sp. fermentation broth was tested for algaicidal activity against Chlamydomonas reinhardtii. An increasing volume of the purified compounds (20 mg/mL in ethanol) was added to a clear 48 well polystyrene plate with 750 micro liters of the specified algae growing. Each treatment was done in two replicates and the solvent used as a negative control. The plate was closed with a lid and incubated for 72 hours under constant light at room temperature. After 72 hours the fluorescence (at 680 nm) of the suspension in each well was measured using a SpectraMax M2 plate reader, and the reduction in fluorescence compared with the negative control was converted into percent control of algal growth. Each sample was visually compared to the negative control; a well that was visually clearer than the negative control was scored as active. […] Tests were run in two replicates and %. Control was calculated as a reduction of fluorescence at 680 nm compared with the negative control. Each sample was visually compared to the negative control; a well that was visually clearer than the negative control was scored as active.

M. incognita [3] = assay: In vitro 96-well nematode immobility bioassay of FR901228, trial T2; format: in vivo; settings: 3 μl of 20 mg/ml to 50 μl, 24 hour, 25 C
Procedure: (§1) The pure sample of FR 901228 was tested using an in vitro 96-well plastic cell-culture plate bioassay. 15-20 nematodes in a 50 μl water solution were exposed to 3 μl of a 20 mg/ml solution of FR 901228 for a 24 hour period at 25 C. Once the incubation period was completed, results were recorded based on a visual grading of immobility of the juvenile nematodes (J2's) in each well treated with compounds; each treatment was tested in replicate of 4 wells. Three controls are included in each trial; 1 positive (1% Avid) & 2 negative (DMSO & water). Trials (T1) was carried out using Free living nematodes (FLN) and trail (T2) was carried out using M. incognita nematodes, the samples were dissolved in 100% DMSO.

[4] = test system: Free living nematodes (FLN); assay: In vitro 96-well nematode immobility bioassay of FR901228, trial T1; format: in vivo; settings: 3 μl of 20 mg/ml to 50 μl, 24 hour, 25 C
Procedure: as §1

[5] = test system: M. incognita and M. hapla; assay: In vitro 96-well nematode immobility bioassay, mean of trials T1 and T2; format: in vivo; settings: 3 μl of 20 mg/ml to 50 μl, 24 hour, 25° C
Procedure: (§2) The pure sample of butyl paraben and hexyl paraben was used in an in vitro 96-well plastic cell-culture plate bioassay. 15-20 nematodes in a 50 μl water solution were exposed to 3 μl of a 20 mg/ml peak concentrate for a 24 hour period at 25° C. Once the incubation period was completed, results were recorded based on a visual grading of immobility of the juvenile nematodes (J2's) in each well treated with compounds; each treatment was tested in replicate of 4 wells. […] Three controls are included in each trial; 1 positive (1% Avid) & 2 negative (DMSO & water). Trials (T1) was carried out using M. incognita nematodes and trail (T2) was carried out using M. hapla nematodes, the samples were dissolved in 100% DMSO.

M. hapla = assay: In vitro 96-well nematode immobility bioassay, trial T2; format: in vivo; settings: 3 μl of 20 mg/ml to 50 μl, 24 hour, 25° C
Procedure: as §2

radish plants = assay: Whole plant herbicidal bioassay on radish; format: in vivo; set-up: Control, Day-1 Reading, Replicate 1 / Control, Day-1 Reading, Replicate 2 / Control, Day-1 Reading, Replicate 3 / Control, Day-1 Reading, AVG / Control, Day-7 Reading, Replicate 1 / Control, Day-7 Reading, Replicate 2 / Control, Day-7 Reading, Replicate 3 / Control, Day-7 Reading, AVG: scale not given here; settings: 10 mg/ml; for Control, Day-1 Reading, AVG / Control, Day-1 Reading, Replicate 1 / Control, Day-1 Reading, Replicate 2 / Control, Day-1 Reading, Replicate 3 / Control, Day-7 Reading, AVG / Control, Day-7 Reading, Replicate 1 / Control, Day-7 Reading, Replicate 2 / Control, Day-7 Reading, Replicate 3: foliar spray
Procedure: Healthy radish plants with two to three true leaves were selected for testing. The radish plants are 13 days old at treatment. The plants are sorted so that all treatments are equivalent in foliage surface area and plant height. The pots are labeled with treatment number and repetition number. Three repetitions per treatment are tested.
Ten fractions of MBI-206 formulated product are tested. The fractions are at a concentration of 10 mg/ml. The crude extracts of the formulated product and broth are also tested. An untreated control (treated with deionized water) and a positive control (RoundUp Super Concentrate at a rate of 2.5 fluid ounces per gallon) are included in the test.
All products and treatments are well shaken prior to application. Treatments are applied using a nozzle from a 2-ounce spray bottle. Separate spray nozzles were used for each treatment. […] Two milliliters of each treatment are sprayed simultaneously over the three repetitions of each treatment so that each plant is treated with approximately 0.67 milliliters of treatment solution.
The plants are allowed to air dry and are then randomized in holding trays. Each tray is labeled with the experiment name and treatment date and placed on the laboratory greenhouse shelves. The laboratory greenhouse maintains a temperature of 70-80° F. and a relative humidity of 30-40%. Throughout the bioassay, plants are watered from below by filling the holding trays with an appropriate amount of water so that plant foliage remained dry.
Symptoms included foliage burning and plant stunting. The following rating scale, shown in Table 4 is used to quantify efficacy. Ratings are determined by observing the following factors relative to the plants of the untreated control: overall plant health, average plant height, and foliage health. Symptoms of affected plants may include discolored/spotted/burnt/bleached foliage, warped/twisted/curled leaves, side branching (due to damaged apical meristem), plant dieback, or death.
The pure compounds (butyl paraben [MBI206-FP-F5H32] and hexyl paraben [MBI206-FP-F5H40]) obtained from fraction 5 were tested at a concentration of 10 mg/ml. An untreated control (treated with deionized water), the formulation blank (at 3% v/v & 10% v/v), and a positive control (RoundUp Super Concentrate at a rate of 2.5 fluid ounces per gallon) are included in the test.

M. incognita [6] = assay: In vitro 96-well nematode immobility bioassay, trial T1; format: in vivo; settings: 3 μl of 20 mg/ml to 50 μl, 24 hour, 25° C
Procedure: as §2

[7] = test system: Beet Armyworm (Spodoptera exigua); assay: 96-well diet overlay assay with 1st instar Beet Armyworm larvae; format: in vivo; settings: for mortality at 40 µg/disc: Spodoptera exigua
Procedure: The insecticidal activity of butyl paraben (MBI206-FP-F5H32) and hexyl paraben (MBI206-FP-F5H40) were tested in a laboratory assay using a 96-well diet overlay assay with 1st instar Beet Armyworm (Spodoptera exigua) larvae using microtiter plates with 200 ul of solid, artificial Beet Armyworm diet in each well. One hundred (100) microliters of each test sample (containing 40 ug of sample) is pipetted on the top of the diet (one sample in each well), and the sample is let dry under flowing air until the surface is dry. Each sample was tested in six replicates, and water and a commercial Dipel product are used as negative and positive controls, respectively. One first instar larvae of the test insect (Beet armyworm—Spodoptera exigua) was placed in each well, and the plate was covered with plastic cover with airholes. The plates with insects were incubated at 26° C. for 6 days with daily mortality evaluations.

[8] = 5 μL of sample (20 mg/mL in ethanol) per 750 μL of algae
[9] = 5 μL of sample per 750 μL of algae
[10] = 11 μL of sample (20 mg/mL in ethanol) per 750 μL of algae
[11] = 11 μL of sample per 750 μL of algae
[12] = 22.5 μL of sample (20 mg/mL in ethanol) per 750 μL of algae
[13] = 22.5 μL of sample per 750 μL of algae, well visually clearer than negative control scored as active
[14] = 72 h, read-out: Insecticidal bioassay data (mortality), Day 3
[15] = 96 h, read-out: Insecticidal bioassay data (mortality), Day 4

Row | SMILES | mortality at 250 µg/mL (Lygus hesperus) | % Control [2, 8] | Visual [2, 9] | % Control [2, 10] | Visual [2, 11] | % Control [2, 12] | Visual [2, 13] | Mean % immobility [5] | % immobility (trial # T2) (M. hapla) | Control, Day-1 Reading, AVG (radish plants) | Control, Day-1 Reading, Replicate 1 (radish plants) | Control, Day-1 Reading, Replicate 2 (radish plants) | Control, Day-1 Reading, Replicate 3 (radish plants) | Control, Day-7 Reading, AVG (radish plants) | Control, Day-7 Reading, Replicate 1 (radish plants) | Control, Day-7 Reading, Replicate 2 (radish plants) | Control, Day-7 Reading, Replicate 3 (radish plants) | % immobility (trial # T1) (M. incognita [6]) | immobility against M. incognita (M. incognita [6]) | mortality at 40 µg/disc [7, 14] | also measured
1 | CC(=O)OC(C)/C=C\C(=O)NC1CC(C)C(C/C=C(C)/C=C/C2OC(C)(O)C(O)C3(CO3)C2O)OC1C (centres unmarked) [FR901465] | 91.2% | −86.58% | Not Active | −33.58% | Not Active | −3.887% | Not Active | – | – | – | – | – | – | – | – | – | – | – | – | – | control of milkweed bugs [1]: 87.5%
2 | C/C=C1\NC(=O)[C@H]2CSSCC/C=C/[C@H](CC(=O)N[C@H](C(C)C)C(=O)N2)OC(=O)[C@H](C(C)C)NC1=O [FR901228] | 51.7% | 89.48% | Active | 99.36% | Active | 98.71% | Active | – | – | – | – | – | – | – | – | – | – | – | – | – | immobility (M. incognita [3]): 75%; immobility [4]: 75%
3 | CCCCOC(=O)c1ccc(O)cc1 [Butyl paraben, butyl paraben] | – | – | – | – | – | – | – | 81.25% | 87.5% | 18.3 | 25 | 5 | 25 | 24.2 | 25 | 10 | 37.5 | 75% | 81.25% | 8.93% | mortality ([7]; 40 ug of sample per well, text summary of Table 7): 9%; mortality at 40 µg/disc [7, 15]: 8.93%
4 | CCCCCCOC(=O)c1ccc(O)cc1 [Hexyl paraben, hexyl paraben] | – | – | – | – | – | – | – | 93.75% | 100% | 75.0 | 75 | 75 | 75 | 87.5 | 87.5 | 87.5 | 87.5 | 87.5% | 93.75% | 50% | herbicidal potency in words (radish plants; compared with butyl paraben): most potent herbicidal compound; mortality at 40 µg/disc [7, 15]: 70.8%
